One may read the IC50 as the concentration that gives 50% inhibition.

Where only a bound is given, the exact number is not on record here.

The target of one assay is CDK5/p25 (Homo sapiens, UniProt Q00535). Briefly: CDK5 mobility shift assay (enzymatic activity of CDK5/p25). Type of assay: biochemical. Conditions: for IC50: 0.154 nM CDK5/p25, FL peptide 29, 60 min at room temperature, read-out: CDK5 IC50; for CDK5/CDK2 specificity: fold more active against CDK5 than CDK2. Summed up:
(§1)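 Phosphorylation of 1.5 μM fluorescent peptide was read by microfluidic mobility shift and fitted to IC50 (4-parameter), normalized to no-compound and no-enzyme controls. CDK5/p25 ran at 0.154 nM with […] ATP for 60 min, using peptide 29. CDK2/CycA2 ran at 1.25 nM with 37 μM ATP for 120 min, using peptide 18. Both included a 30-min compound preincubation in pH 7.5 buffer.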

The next assay addresses CDK2/CycA2 (Homo sapiens, UniProt P24941). Briefly: CDK2 mobility shift assay (enzymatic activity of CDK2/CycA2). The class given is biochemical. Conditions: 1.25 nM CDK2/CycA2, 37 μM ATP, FL Peptide 18, 120 min at room temperature; read-out: CDK2 IC50. The essentials: as §1

Sequence of CDK5/p25 (Q00535 whole entry): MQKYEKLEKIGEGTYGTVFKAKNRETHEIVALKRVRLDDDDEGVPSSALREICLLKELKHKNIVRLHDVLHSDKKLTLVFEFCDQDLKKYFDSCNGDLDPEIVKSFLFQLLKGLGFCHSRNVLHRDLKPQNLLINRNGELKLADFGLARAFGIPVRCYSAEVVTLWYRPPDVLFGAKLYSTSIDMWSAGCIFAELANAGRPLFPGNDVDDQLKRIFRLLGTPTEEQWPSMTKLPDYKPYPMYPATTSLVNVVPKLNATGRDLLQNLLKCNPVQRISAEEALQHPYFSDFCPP
Sequence of CDK5/p25 (Q15078 99-307 partner limits assumed): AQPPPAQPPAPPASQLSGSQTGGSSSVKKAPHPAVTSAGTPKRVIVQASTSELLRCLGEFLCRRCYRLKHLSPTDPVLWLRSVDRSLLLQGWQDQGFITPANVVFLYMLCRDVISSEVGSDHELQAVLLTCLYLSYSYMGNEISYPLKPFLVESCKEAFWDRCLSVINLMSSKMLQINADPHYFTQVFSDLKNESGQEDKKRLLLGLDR

On to `CN1CCC(S(=O)(=O)c2ccc3cnc(Nc4ccc(N5CCOCC5)cc4)cc3n2)CC1` [Compound 262], for which, at CDK5/p25, the IC50 is below 0.01 µM; the CDK5/CDK2 specificity entry was “++ (greater than 10-fold and less than or equal to 100-fold more active against CDK5 than CDK2)”. For the same compound, the IC50 at CDK2/CycA2 fell in the range of 0.01 to 0.1 µM.

For the compound `CN1CCC(S(=O)(=O)c2ccc3cnc(Nc4ccc(Cn5cncn5)cc4)cc3n2)CC1` [Compound 263], at CDK5/p25, the IC50 is below 0.01 µM; the CDK5/CDK2 specificity entry was “++ (greater than 10-fold and less than or equal to 100-fold more active against CDK5 than CDK2)”. The IC50 at CDK2/CycA2 fell in the range of 0.01 to 0.1 µM.

`COC(=O)CCc1nnc(Nc2cc3nc(S(=O)(=O)C4CCN(C)CC4)ccc3cn2)s1` [Compound 264]: at CDK5/p25, the IC50 is above 1 µM and the CDK5/CDK2 specificity entry is given as “+ (10-fold or less more active against CDK5 than CDK2)”. Besides, the concentration for half-maximal inhibition (IC50) on CDK2/CycA2 is above 1 µM.

Regarding `Cc1cc(C(=O)NC(C)C)ccc1Nc1cc2nc(S(=O)(=O)C3CCN(C)CC3)ccc2cn1` [Compound 265], on CDK5/p25, the IC50 fell in the range of 0.01 to 0.1 µM and the CDK5/CDK2 specificity result is reported as “+++ (greater than 100-fold more active against CDK5 than CDK2)”. For the same compound, at CDK2/CycA2, the IC50 was above 1 µM.

On to `CN1CCC(S(=O)(=O)c2ccc3cnc(Nc4ccccc4N4CCOCC4)cc3n2)CC1` [Compound 266], for which the IC50 at CDK5/p25 and at CDK2/CycA2 was above 1 µM in each case. Further, at CDK5/p25, the CDK5/CDK2 specificity result was “++ (greater than 10-fold and less than or equal to 100-fold more active against CDK5 than CDK2)”.

Turning to `COc1cncc(Nc2cc3nc(S(=O)(=O)C4CCN(C)CC4)ccc3cn2)c1` [Compound 267], at CDK5/p25, the IC50 was 0.01 to 0.1 µM; the CDK5/CDK2 specificity result was “++ (greater than 10-fold and less than or equal to 100-fold more active against CDK5 than CDK2)”. Besides, the IC50 on CDK2/CycA2 fell in the range of 0.1 to 1 µM.

For `CNC(=O)c1ccc(Nc2cc3nc(S(=O)(=O)C4CCN(C)CC4)ccc3cn2)cc1` [Compound 268], at CDK5/p25, the IC50 was below 0.01 µM; the CDK5/CDK2 specificity result is “++ (greater than 10-fold and less than or equal to 100-fold more active against CDK5 than CDK2)”. Besides, on CDK2/CycA2, the IC50 was 0.1 to 1 µM.

Regarding `CN1CCC(S(=O)(=O)c2ccc3cnc(Nc4ccon4)cc3n2)CC1` [Compound 269], on CDK5/p25, the IC50 was 0.01 to 0.1 µM and the CDK5/CDK2 specificity entry was “+ (10-fold or less more active against CDK5 than CDK2)”. On CDK2/CycA2, the IC50 was 0.1 to 1 µM.

As for `CN1CCC(S(=O)(=O)c2ccc3cnc(Nc4ccc(N5CCN(C)CC5)cc4)cc3n2)CC1` [Compound 270], the IC50 was below 0.01 µM on CDK5/p25 and 0.1 to 1 µM on CDK2/CycA2. At CDK5/p25, the CDK5/CDK2 specificity result is “++ (greater than 10-fold and less than or equal to 100-fold more active against CDK5 than CDK2)”.

For the compound `CN1CCC(S(=O)(=O)c2ccc3cnc(Nc4ccc(S(C)(=O)=O)cc4)cc3n2)CC1` [Compound 271], on CDK5/p25, the IC50 was below 0.01 µM and the CDK5/CDK2 specificity entry was “+ (10-fold or less more active against CDK5 than CDK2)”. Also, the IC50 at CDK2/CycA2 fell in the range of 0.01 to 0.1 µM.

Turning to `CN1CCC(S(=O)(=O)c2ccc3cnc(Nc4ccc5oc(=O)ccc5c4)cc3n2)CC1` [Compound 272], the IC50 at CDK5/p25 is below 0.01 µM; on CDK2/CycA2 it was 0.1 to 1 µM. Also, on CDK5/p25, the CDK5/CDK2 specificity entry was “++ (greater than 10-fold and less than or equal to 100-fold more active against CDK5 than CDK2)”.

`CN1CCC(S(=O)(=O)c2ccc3cnc(Nc4cccc(N5CCOCC5)c4)cc3n2)CC1` [Compound 273]: at CDK5/p25, the IC50 is below 0.01 µM and the CDK5/CDK2 specificity entry is on record as “+++ (greater than 100-fold more active against CDK5 than CDK2)”. Further, at CDK2/CycA2, the IC50 lay in the range of 0.1 to 1 µM.

Turning to `CN1CCC(S(=O)(=O)c2ccc3cnc(Nc4cccc(C5CC5)c4)cc3n2)CC1` [Compound 274], the IC50 was below 0.01 µM at CDK5/p25 and 0.01 to 0.1 µM at CDK2/CycA2. The CDK5/CDK2 specificity result at CDK5/p25 is “+++ (greater than 100-fold more active against CDK5 than CDK2)”.

Turning to `CN1CCC(S(=O)(=O)c2ccc3cnc(Nc4ccc5c(c4)C(=O)N(C)C5)cc3n2)CC1` [Compound 275], the IC50 at CDK5/p25 lay within 0.01 to 0.1 µM; on CDK2/CycA2 it was 0.1 to 1 µM. The CDK5/CDK2 specificity result on CDK5/p25 is “++ (greater than 10-fold and less than or equal to 100-fold more active against CDK5 than CDK2)”.

Take `CN1CCC(S(=O)(=O)c2ccc3cnc(Nc4cccc(CN5CCOCC5)c4)cc3n2)CC1` [Compound 276]: at CDK5/p25, the IC50 is below 0.01 µM; the CDK5/CDK2 specificity result was “++ (greater than 10-fold and less than or equal to 100-fold more active against CDK5 than CDK2)”. Also, the IC50 at CDK2/CycA2 is 0.1 to 1 µM.

As for `CN1CCC(S(=O)(=O)c2ccc3cnc(Nc4cccc(N5CCN(C)CC5)c4)cc3n2)CC1` [Compound 277], at CDK5/p25, the IC50 was below 0.01 µM; the CDK5/CDK2 specificity entry is “++ (greater than 10-fold and less than or equal to 100-fold more active against CDK5 than CDK2)”. The IC50 on CDK2/CycA2 is 0.1 to 1 µM.

Take `CN1CCC(S(=O)(=O)c2ccc3cnc(Nc4ccc5c(c4)C(=O)NCC5)cc3n2)CC1` [Compound 278]: the IC50 was below 0.01 µM on CDK5/p25 and 0.1 to 1 µM on CDK2/CycA2. Further, the CDK5/CDK2 specificity result on CDK5/p25 was “++ (greater than 10-fold and less than or equal to 100-fold more active against CDK5 than CDK2)”.

Turning to `CN1CCC(S(=O)(=O)c2ccc3cnc(Nc4ccc(-n5cncn5)cc4)cc3n2)CC1` [Compound 279], on CDK5/p25, the IC50 was below 0.01 µM; the CDK5/CDK2 specificity result was “++ (greater than 10-fold and less than or equal to 100-fold more active against CDK5 than CDK2)”. Besides, the IC50 at CDK2/CycA2 was in the range of 0.1 to 1 µM.

`CN(C)Cc1cccc(Nc2cc3nc(S(=O)(=O)C4CCN(C)CC4)ccc3cn2)c1` [Compound 280]: the IC50 was 0.01 to 0.1 µM at CDK5/p25 and 0.1 to 1 µM at CDK2/CycA2. In addition, the CDK5/CDK2 specificity entry at CDK5/p25 was “+ (10-fold or less more active against CDK5 than CDK2)”.

In the case of `CN1CCC(S(=O)(=O)c2ccc3cnc(Nc4cccc(N5CCCC5=O)c4)cc3n2)CC1` [Compound 281], at CDK5/p25, the IC50 is below 0.01 µM; the CDK5/CDK2 specificity entry is “++ (greater than 10-fold and less than or equal to 100-fold more active against CDK5 than CDK2)”. Also, at CDK2/CycA2, the IC50 is 0.1 to 1 µM.

Turning to `CN1CCC(S(=O)(=O)c2ccc3cnc(Nc4ccc5c(c4)COC5)cc3n2)CC1` [Compound 282], the IC50 at CDK5/p25 is below 0.01 µM; on CDK2/CycA2, 0.01 to 0.1 µM. For the same compound, the CDK5/CDK2 specificity entry on CDK5/p25 was “++ (greater than 10-fold and less than or equal to 100-fold more active against CDK5 than CDK2)”.

`CN1CCC(S(=O)(=O)c2ccc3cnc(Nc4cccc(N5CCOC5=O)c4)cc3n2)CC1` [Compound 284]: at CDK5/p25, the IC50 was below 0.01 µM; the CDK5/CDK2 specificity entry was “++ (greater than 10-fold and less than or equal to 100-fold more active against CDK5 than CDK2)”. Further, on CDK2/CycA2, the IC50 lay in the range of 0.01 to 0.1 µM.

As to `CN1CCC(S(=O)(=O)c2ccc3cnc(Nc4cccc(N5CCNC5=O)c4)cc3n2)CC1` [Compound 285], the values for the IC50 on CDK5/p25 and on CDK2/CycA2 were below 0.01 µM and 0.01 to 0.1 µM, respectively. Further, at CDK5/p25, the CDK5/CDK2 specificity result was “++ (greater than 10-fold and less than or equal to 100-fold more active against CDK5 than CDK2)”.

As to `CN1CCC(S(=O)(=O)c2ccc3cnc(Nc4cnc5ccc(Cl)nn45)cc3n2)CC1` [Compound 286], on CDK5/p25, the IC50 is above 1 µM and the CDK5/CDK2 specificity entry was “+ (10-fold or less more active against CDK5 than CDK2)”. Besides, the IC50 on CDK2/CycA2 is above 1 µM.

The values are drawn from patent US20220389009A1, “SUBSTITUTED 1,6-NAPHTHYRIDINE INHIBITORS OF CDK5” (Goldfinch Bio, Inc., priority 2019, published 2022).
